The text below walks through data of PMC8942850, “Boron clusters as broadband membrane carriers” (Nature, 2022).

The conditions of series [1]: gold standard in the field; cited from earlier work. The text has this:
U-tube transport experiments, across a bulk chloroform layer, unambiguously confirmed that the brominated cluster served as a non-covalent carrier across a hydrophobic bulk barrier (Extended Data Fig. 2a, b). To quantitatively characterize the transport efficiency of the new cluster carriers, the normalized fluorescence responses in the vesicle experiments (Fig. 2b) were plotted against cluster concentration to produce dose–response curves (Fig. 2c and Extended Data Fig. 3a). We extracted, by Hill analysis, the salient parameters: the maximal activity (Ymax), the concentration needed to achiev ...

Series [2] is described as follows: HPTS/DPX transport assay in zwitterionic EYPC vesicles. The series is classed as in vitro ADME. Set-up: key to Et: Et = Ymax × (pEC50/ft); pEC50 = −log EC50. The method, then: The well-established HPTS/DPX assay, which uses 8-hydroxypyrene-1,3,6-trisulfonate (HPTS) and p-xylene-bis-pyridinium (DPX), was implemented to monitor peptide-transport activation (Fig. 2a). […] A surfactant (Triton X-100) was added at the end of the experiment (t = 600 s) to release all vesicle content and normalize the fluorescence intensity data.
Fig. 2 Carrier activity obtained from the HPTS/DPX assay. a, Schematic representation of the transport of otherwise impermeable analytes facilitated by superchaotropic cluster anions with encapsulated HPTS/DPX probe/quencher pair used for signalling. […] Concentrations of carrier and cargo, when fixed, were 40 and 20 µM, respectively, unless explicitly stated. Source data
A thin lipid film was prepared by evaporating a lipid solution with a stream of nitrogen and then dried in vacuo overnight.
Fluorescence intensities were normalized to fractional emission as I(t) = (It − I0)/(I∞ − I0), where I0 = It before cluster addition and I∞ = It after lysis.
In the activator measurements, in which different activators were tested with the same cargo, the activator efficiency (Ea) is determined from their ability to activate the transport of an impermeable cargo molecule and is characterized by Ymax, its maximal activity, and EC50, the effective activator concentration. A potent activator reaches high Ymax at low EC50. To reflect both factors, the activator efficiency is defined as Ea = Ymax × (pEC50/fa), where pEC50 is the negative logarithm of EC50.
In the transport measurements, in which different types of cargo were tested with the same activator, the transport efficiency (Et) reports on the sensitivity of the cargo for being transported and is described by Ymax, the maximal activity, and EC50, the effective cargo concentration. An easily accessible cargo reaches high Ymax at low EC50. The transport efficiency is defined as a composition of both parameters according to Et = Ymax × (pEC50/ft), where pEC50 is the negative logarithm of EC50.
Extended Data Fig. 3 Transport activity. a, Transport activity, Y, in EYPC⊃HPTS/DPX vesicles as a function of cluster concentration at constant cargo concentration (WR7, 20 µM). b, Transport activity, Y, for B12Br12^2− (40 µM) in EYPC⊃HPTS/DPX vesicles as a function of the concentration of different cargo types; red lines correspond to the resulting fit with the Hill equation. Source data

Series [3] deals with HeLa cells. In words: Phalloidin-TRITC delivery, confocal imaging of F-actin staining. The series is classed as cell-based. Particulars: living HeLa cells, HKR buffer, 3 h, 500 nM cargo concentration. The method, then:
(§1) Representative images of two biological replicates. […] Scale bars, 50 μm.
Cells were incubated with 7 µM phalloidin-TRITC (red) in the absence (left) and presence of 50 µM ^AcR8 (middle) or 50 µM of B12Br12^2− cluster (right) in HKR buffer for 3 h, subsequently stained with Hoechst (blue), washed with DMEM without phenol red, and imaged by confocal fluorescence microscopy; bright-field images in insets. Micrographs from each cell line were processed independently, experiments were performed twice. e, MTT viability assay of the corresponding cell lines (HeLa, GT1-7, ARPE-19 and A549, from left to right) at different concentrations (0, 25, 75, 250, and 500 µM) of B12Br12^2− (black) or ^AcR8 (red); data are mean ± s.d. of five measurements. f, Confocal images of HeLa cells after incubation with 500 nM phalloidin-TRITC and different concentrations B12Br12^2−; the images correspond to those of Fig. 4 in the main text, but are shown with increased brightness to facilitate observation of the actin filaments. Representative images of two biological replicates. All scale bars are […], except for panel f (50 µm). Source data

Series [4] relates to HeLa cells. The series can be described thus: Confocal imaging of TAMRA-R8 / TAMRA-D-R8 / TAMRA uptake in living cells. As to conditions: HeLa, 1, 10 or 50 µM TAMRA, 10 µM B12Br12^2− in HKR, 1 h.
Source text: as §1
Representative images of two biological replicates. […] Source data
(1 picture or pasted object on this page, not shown here)

The test system of series [5] is Escherichia coli Top10 strain. In words: Kanamycin A delivery in E. coli (OD570 growth). Particulars: for mean_norm_OD570: LB, 37 °C, 18 h, mean of triplicate. Format: cell-based. The method, then:
As a proof-of-principle, we investigated its potential to reduce the minimum inhibitory concentration of kanamycin A, an aminoglycoside antibiotic. Aminoglycosides function by binding to the bacterial 30S ribosomal subunit; consequently, effective passage through the cell wall and plasma membrane is essential for aminoglycosides to reach their intracellular targets. […]
A preculture of E. coli Top10 cells was incubated overnight in LB medium with 50 µg ml^−1 streptomycin sulfate. […] After 18 h, the optical density at 570 nm, as an indicator of bacterial growth, was measured with a Tecan Infinite F200Pro microplate reader. Data were normalized for each concentration of B12Br12^2− relative to the control condition without antibiotic.
Solid points indicate mean ± s.d. of three technical replicates. […] Cross-bars indicate mean ± s.d. of three independent experiments (two with technical triplicates, one with technical duplicates); values obtained in each experiment are represented by different shapes. c, Viability of HeLa cells after incubation with different doses of MMAF in the presence of 0, 5 and 10 μM B12Br12^2−. Solid points indicate mean ± s.d. of three technical replicates. d, Corresponding IC50 values of MMAF. […] Source data

Read-outs that look alike come from different tables or passages of the source.

For `O=C(O)CCCc1ccc2ccc3cccc4ccc1c2c34` [Pyrenebutyrate (1), pyrenebutyrate, reference compound], the Ea activator efficiency entry is on record as “≈ 5” in series [1] and 4.9 in series [2] (Ea = Ymax × (pEC50/fa), fa = 20.6, WR7 (20 μM) cargo, 10% error (SD)). The “Activation of oligolysine (WK7) membrane transport” value in series [2] (WK7 cargo, HPTS/DPX assay) was “fails to trigger any signal”. Further, in series [2] (carrier concentration varied, WR7 (20 μM) as common cargo, EYPC⊃HPTS/DPX vesicles, 13 µM lipid, 10 mM Tris, 107 mM NaCl, pH 7.4, HPTS fluorescence, Hill analysis, 10% error (SD) unless stated, n.a. = no detectable activity, d.l. = dye leakage, no determination possible), the “Ymax (%) maximal activity, carrier activity” value is reported as 100%. Further, the “Activity as activator for the newly introduced targets” value in series [2] (membrane-impermeable analytes (100 µM), HPTS/DPX assay) is recorded as “no activity”. Further, the EC50 in series [2] (read-out: EC50 (μM) effective carrier concentration to reach 50% of Ymax, carrier concentration varied, WR7 (20 μM) as common cargo, EYPC⊃HPTS/DPX vesicles, pH 7.4, Hill analysis, 10% error (SD) unless stated, n.a. = no detectable activity, d.l. = dye leakage, no determination possible) worked out at 103 µM.
On to Phalloidin-TRITC, for which, in the series with HeLa cells [3], the “F-actin staining after B12Br12^2−-triggered membrane passage” value is “excellent staining of the F-actin target”.
With TAMRA [reference compound], the “Transport of non-conjugated dye by B12Br12^2−” value with HeLa cells [4] is “not carried”.
For kanamycin A, the mean_norm_OD570 in series [5] (Kanamycin 3 µg/mL, B12Br12 0, normalised to no-antibiotic control) is 68.2744; in series [5] (Kanamycin 3 µg/mL, B12Br12 500 mM, normalised to no-antibiotic control at same B12Br12), 9.048; in series [5] (Kanamycin 3 µg/mL, B12Br12 750 mM, normalised to no-antibiotic control at same B12Br12), 0.7906; in series [5] (Kanamycin 3 µg/mL, B12Br12 1000 mM, normalised to no-antibiotic control at same B12Br12), 0.4633; in series [5] (Kanamycin 2.5 mg/mL, B12Br12 0 (so in the source), normalised to no-antibiotic control), 70.6541; in series [5] (Kanamycin 2.5 mg/mL, B12Br12 500 mM (so in the source), normalised to no-antibiotic control at same B12Br12), 24.7877. For the same compound, the mean_norm_OD570 in series [5] (Kanamycin 2.5 mg/mL, B12Br12 750 mM (so in the source), normalised to no-antibiotic control at same B12Br12) is 9.686; in series [5] (Kanamycin 2.5 mg/mL, B12Br12 1000 mM (so in the source), normalised to no-antibiotic control at same B12Br12), 14.0089; in series [5] (Kanamycin 3.5 mg/mL, B12Br12 0 (so in the source), normalised to no-antibiotic control), 58.481; in series [5] (Kanamycin 3.5 mg/mL, B12Br12 500 mM (so in the source), normalised to no-antibiotic control at same B12Br12), 0.383; in series [5] (Kanamycin 3.5 mg/mL, B12Br12 750 mM (so in the source), normalised to no-antibiotic control at same B12Br12) it was 0.005219; in series [5] (Kanamycin 3.5 mg/mL, B12Br12 1000 mM (so in the source), normalised to no-antibiotic control at same B12Br12), 0.103. The “E. coli viability, absence of cluster” value in series [5] (kanamycin A 3.5 µg ml^−1, no B12Br12^2−) came out at 60%. The “E. coli viability, presence of the cluster carrier” value in series [5] (kanamycin A 3.5 µg ml^−1 with B12Br12^2−) is reported as less than 1%. The compound further showed an Et transport efficiency in series [2] (Et = Ymax × (pEC50/ft), ft = 19.8 so that WR7 equals 10.0, B12Br12^2− (40 μM) carrier, 5% error (SD) unless stated) of 1.7 ± 0.2. Besides, the Et in series [2] (Fig.2 d, per analyte (cargo)) is listed as 1.7. Moreover, the “Ymax (%) maximal activity, transport of cargo” value in series [2] (cargo concentration varied, B12Br12^2− (40 μM) as common carrier, EYPC⊃HPTS/DPX vesicles, 13 µM lipid, 10 mM Tris, 107 mM NaCl, pH 7.4, HPTS fluorescence, Hill analysis, 10% error (SD) unless stated, n.t. = no detectable transport) was 54 ± 6%. Besides, the EC50 in series [2] (read-out: EC50 (μM) effective cargo concentration to reach 50% of Ymax, cargo concentration varied, B12Br12^2− (40 μM) as common carrier, EYPC⊃HPTS/DPX vesicles, pH 7.4, Hill analysis, 10% error (SD) unless stated, n.t. = no detectable transport) came to 235 ± 70 µM.
